According to the CheMixHub ionic liquid set:
± gives the uncertainty stated by the source.

Assay: xn = mol fraction of the nth substance listed

CC[n+]1ccn(C)c1.O=S(=O)([O-])C(F)(F)F + CS(C)=O
100 kPa
Conditions	viscosity [mPa·s]
298.15 K, x1 = 0.1068	3.7 ± 1.1
298.15 K, x1 = 0.3077	7.9 ± 2.4
318.15 K, x1 = 0.4023	7 ± 2.1
323.15 K, x1 = 0.4933	8.2 ± 2.5

COCCOCCn1cc[n+](CCC#N)c1.O=S(=O)([N-]S(=O)(=O)C(F)(F)F)C(F)(F)F + CS(C)=O
101.3 kPa
Conditions	electrical conductivity [S/m]	viscosity [mPa·s]
293.15 K, x1 = 0.1981	0.00634 ± 0.00021	8.12 ± 0.23
293.15 K, x1 = 0.2776	0.00928 ± 0.00044	–
303.15 K, x1 = 0.0989	0.00234 ± 8.2e-05	–
303.15 K, x1 = 0.1981	0.00768 ± 0.00025	–
303.15 K, x1 = 0.2776	0.0112 ± 0.00053	9.24 ± 0.28
303.15 K, x1 = 0.5029	0.0405 ± 0.0016	26.2 ± 1.2
303.15 K, x1 = 0.89	0.0942 ± 0.0019	83.1 ± 2.9
313.15 K, x1 = 0.0989	0.00278 ± 9.9e-05	–
313.15 K, x1 = 0.1981	0.00939 ± 0.00032	–
313.15 K, x1 = 0.798	0.148 ± 0.003	33.2 ± 1.1
313.15 K, x1 = 0.89	0.125 ± 0.0025	51.5 ± 1.7
323.15 K, x1 = 0.0989	0.00342 ± 0.00013	–
323.15 K, x1 = 0.1981	0.0122 ± 0.00043	3.212 ± 0.088
323.15 K, x1 = 0.798	0.203 ± 0.0042	24.66 ± 0.85

CC[n+]1ccn(C)c1.O=S(=O)([O-])C(F)(F)F + CS(C)=O + CC#N
viscosity [mPa·s], 100 kPa
Conditions	298.15 K	303.15 K	308.15 K	313.15 K	318.15 K	323.15 K
x1 = 0.1068, x2 = 0.8932	3.7 ± 1.1	–	–	–	–	–
x1 = 0.2015, x2 = 0.7985	5.3 ± 1.6	4.7 ± 1.4	–	3.8 ± 1.1	3.4 ± 1	–
x1 = 0.2065, x2 = 0.6555	3.5 ± 1.1	–	–	–	–	–
x1 = 0.2333, x2 = 0.6152	3.7 ± 1.1	–	–	–	–	–
x1 = 0.2695, x2 = 0.5629	4.1 ± 1.2	3.7 ± 1.1	3.4 ± 1	–	–	–
x1 = 0.3077, x2 = 0.6923	7.9 ± 2.4	–	6.1 ± 1.8	5.4 ± 1.6	4.9 ± 1.5	–
x1 = 0.3091, x2 = 0.5059	4.6 ± 1.4	4.2 ± 1.3	3.9 ± 1.2	3.5 ± 1.1	–	–
x1 = 0.3343, x2 = 0.4656	5.1 ± 1.5	4.6 ± 1.4	–	3.8 ± 1.1	3.5 ± 1	–
x1 = 0.361, x2 = 0.4229	5.6 ± 1.7	5 ± 1.5	4.6 ± 1.4	4.2 ± 1.3	3.8 ± 1.1	–
x1 = 0.3948, x2 = 0	4.5 ± 1.4	4.1 ± 1.2	3.8 ± 1.1	3.5 ± 1	–	–
x1 = 0.4023, x2 = 0.5977	–	–	8.9 ± 2.7	7.8 ± 2.4	7 ± 2.1	6.2 ± 1.9
x1 = 0.4096, x2 = 0.3523	6.7 ± 2	6 ± 1.8	5.4 ± 1.6	4.9 ± 1.5	4.4 ± 1.3	4.1 ± 1.2
x1 = 0.4353, x2 = 0.3096	7.4 ± 2.2	6.6 ± 2	–	5.3 ± 1.6	4.8 ± 1.4	–
x1 = 0.4741, x2 = 0.2498	8.5 ± 2.6	7.6 ± 2.3	6.7 ± 2	6 ± 1.8	5.5 ± 1.6	5 ± 1.5
x1 = 0.4933, x2 = 0.5067	–	–	–	–	9.3 ± 2.8	8.2 ± 2.5
x1 = 0.498, x2 = 0	7.4 ± 2.2	6.6 ± 2	6 ± 1.8	5.4 ± 1.6	4.9 ± 1.5	–
x1 = 0.5094, x2 = 0.1935	9.7 ± 2.9	8.6 ± 2.6	7.6 ± 2.3	6.8 ± 2.1	6.1 ± 1.8	5.5 ± 1.7
x1 = 0.5368, x2 = 0.1703	–	9.5 ± 2.8	8.4 ± 2.5	7.5 ± 2.2	6.7 ± 2	6 ± 1.8
x1 = 0.5656, x2 = 0.1458	–	–	9.2 ± 2.8	8.2 ± 2.5	7.3 ± 2.2	6.6 ± 2
x1 = 0.595, x2 = 0	–	9.5 ± 2.8	8.4 ± 2.5	7.5 ± 2.3	6.7 ± 2	6 ± 1.8
x1 = 0.5961, x2 = 0.12	–	–	–	9 ± 2.7	8 ± 2.4	7.2 ± 2.2
x1 = 0.6284, x2 = 0.0927	–	–	–	–	8.9 ± 2.7	7.9 ± 2.4
x1 = 0.6565, x2 = 0.0845	–	–	–	–	9.7 ± 2.9	8.6 ± 2.6
x1 = 0.686, x2 = 0.076	–	–	–	–	–	9.4 ± 2.8
x1 = 0.6936, x2 = 0	–	–	–	–	9.5 ± 2.8	8.3 ± 2.5
x1 = 0.7058, x2 = 0.0663	–	–	–	–	–	9.9 ± 3
x1 = 0.9005, x2 = 0	34 ± 10	–	–	–	–	–
x1 = 0.9008, x2 = 0.0992	39 ± 12	–	–	–	–	–
x1 = 1, x2 = 0	46 ± 14	38 ± 11	–	–	–	–

CCCCCCCC[n+]1ccc2ccccc2c1.O=S(=O)([N-]S(=O)(=O)C(F)(F)F)C(F)(F)F + Cc1ccccc1
101 kPa
Conditions	viscosity [mPa·s]
298.15 K, x2 = 0.0818	308 ± 19
298.15 K, x2 = 0.4775	50.6 ± 1.1
298.15 K, x2 = 0.4902	48.5 ± 1.1
308.15 K, x2 = 0.0818	162.6 ± 6.9
308.15 K, x2 = 0.2746	81.6 ± 2.1
308.15 K, x2 = 0.4295	41.74 ± 0.93
308.15 K, x2 = 0.4775	32.56 ± 0.72
318.15 K, x2 = 0.1949	67 ± 1.6
318.15 K, x2 = 0.6148	11.19 ± 0.24
318.15 K, x2 = 0.8672	2.19 ± 0.05
328.15 K, x2 = 0.3638	25.85 ± 0.58
328.15 K, x2 = 0.4295	19.34 ± 0.43
328.15 K, x2 = 0.5467	12.11 ± 0.27
328.15 K, x2 = 0.7004	5.51 ± 0.12
338.15 K, x2 = 0	44.8 ± 1
338.15 K, x2 = 0.4775	11.71 ± 0.26

CC[n+]1ccn(C)c1.O=S(=O)([O-])C(F)(F)F + F[B-](F)(F)F.[Li+]
101 kPa, x1 = 1
Conditions	electrical conductivity [S/m]
288.15 K	0.605 ± 0.061
298.15 K	0.859 ± 0.086
333.15 K	2.24 ± 0.22

CC[n+]1ccn(C)c1.O=S(=O)([O-])C(F)(F)F + F[P-](F)(F)(F)(F)F.[Li+]
101 kPa, x1 = 1
Conditions	electrical conductivity [S/m]
288.15 K	0.605 ± 0.061
298.15 K	0.859 ± 0.086
333.15 K	2.24 ± 0.22

C=C[n+]1ccn(CCCC)c1.N[C@@H](CO)C(=O)[O-] + O
101.3 kPa
Conditions	electrical conductivity [S/m]	viscosity [mPa·s]
293.15 K, x1 = 0.3	–	17 ± 0.41
303.15 K, x1 = 0.1	1.37 ± 0.09	6 ± 0.15
303.15 K, x1 = 0.9	–	1832 ± 670
323.15 K, x1 = 1	0.017 ± 0.002	4800 ± 2200
333.15 K, x1 = 0.5	–	38.96 ± 0.94
343.15 K, x1 = 1	–	1737 ± 620
353.15 K, x1 = 0.1	–	4.35 ± 0.11
353.15 K, x1 = 0.5	–	35.95 ± 0.86
353.15 K, x1 = 1	–	1154 ± 370

CC(=O)[O-].Cn1cc[n+](C)c1 + O
293.15 K, 101.3 kPa
Conditions	electrical conductivity [S/m]
x2 = 0	0.275 ± 0.001
x2 = 0.0799	0.561 ± 0.001
x2 = 0.1095	0.863 ± 0.001
x2 = 0.2767	1.457 ± 0.001
x2 = 0.4986	2.733 ± 0.001
x2 = 0.5673	3.384 ± 0.001
x2 = 0.7029	5.091 ± 0.001
x2 = 0.7484	5.772 ± 0.001
x2 = 0.8651	7.166 ± 0.001
x2 = 0.8897	6.824 ± 0.001
x2 = 0.9043	5.765 ± 0.001
x2 = 0.9388	2.782 ± 0.001
x2 = 0.9483	2 ± 0.001
x2 = 0.9579	1.213 ± 0.001
x2 = 0.9681	0.729 ± 0.001

CCCCCCCCCCCCCC[P+](CCCCCC)(CCCCCC)CCCCCC.N#C[N-]C#N + O
viscosity [mPa·s], 100 kPa
Conditions	298.15 K	303.15 K
x1 = 0.5511	183 ± 13	–
x1 = 0.8444	440 ± 34	328 ± 24

CCCCCCCCCC[n+]1ccn(C)c1.O=S(=O)([O-])C(F)(F)C(F)(F)C(F)(F)C(F)(F)F + O
298.15 K, 100 kPa
Conditions	electrical conductivity [S/m]
x1 = 1.66e-06	0.00043 ± 1e-05
x1 = 2.36e-06	0.00063 ± 1e-05
x1 = 3.06e-06	0.00086 ± 2e-05
x1 = 4.11e-06	0.00114 ± 2e-05
x1 = 5.17e-06	0.00146 ± 3e-05
x1 = 5.95e-06	0.00163 ± 3e-05
x1 = 6.65e-06	0.00186 ± 4e-05
x1 = 7.44e-06	0.00212 ± 4e-05
x1 = 8.14e-06	0.00237 ± 5e-05
x1 = 8.76e-06	0.00252 ± 5e-05
x1 = 9.8e-06	0.00283 ± 6e-05
x1 = 1.042e-05	0.003 ± 6e-05
x1 = 1.103e-05	0.00323 ± 6e-05
x1 = 1.164e-05	0.00343 ± 7e-05
x1 = 1.234e-05	0.00363 ± 7e-05
x1 = 1.323e-05	0.00389 ± 8e-05
x1 = 1.384e-05	0.00412 ± 8e-05
x1 = 1.445e-05	0.00429 ± 9e-05
x1 = 1.506e-05	0.00446 ± 9e-05
x1 = 1.586e-05	0.00466 ± 9e-05
x1 = 1.638e-05	0.00486 ± 0.0001
x1 = 1.699e-05	0.00506 ± 0.0001
x1 = 1.779e-05	0.00529 ± 0.00011
x1 = 1.831e-05	0.00541 ± 0.00011
x1 = 1.901e-05	0.00569 ± 0.00011
x1 = 1.971e-05	0.00578 ± 0.00012
x1 = 2.058e-05	0.00601 ± 0.00012
x1 = 2.171e-05	0.00621 ± 0.00012
x1 = 2.26e-05	0.00635 ± 0.00013
x1 = 2.33e-05	0.00649 ± 0.00013
x1 = 2.443e-05	0.00669 ± 0.00013
x1 = 2.512e-05	0.00678 ± 0.00014
x1 = 2.618e-05	0.00695 ± 0.00014
x1 = 2.714e-05	0.00703 ± 0.00014
x1 = 2.793e-05	0.0072 ± 0.00014
x1 = 2.907e-05	0.00729 ± 0.00015
x1 = 3.011e-05	0.0074 ± 0.00015
x1 = 3.116e-05	0.00746 ± 0.00015
x1 = 3.229e-05	0.00763 ± 0.00015
x1 = 3.361e-05	0.00777 ± 0.00016
x1 = 3.526e-05	0.00791 ± 0.00016
x1 = 3.649e-05	0.008 ± 0.00016
x1 = 3.815e-05	0.00814 ± 0.00016
x1 = 3.971e-05	0.00825 ± 0.00017
x1 = 4.103e-05	0.00831 ± 0.00017
